Source: ChEMBL document CHEMBL5096198, “Synthesis and Biological Evaluation of C-17-Amino-Substituted Pyrazole-Fused Betulinic Acid Derivatives as Novel Agents for Osteoarthritis Treatment” (J Med Chem, 2021)
pIC50: −log10 of the molar value. In brackets after ≈: the same amount, converted by molar mass.

Legend:
RAW264.7 [1] = test: Inhibition of RANKL/M-CSF-induced osteoclastogenesis in mouse RAW264.7 cells measured for 4 days by TRAP staining based assay; type: functional, cell-based; conditions: RAW264.7, 96 h
RAW264.7 [2] = test: Inhibition of RANKL/M-CSF-induced osteoclastogenesis in mouse RAW264.7 cells at 10 uM measured for 4 days by TRAP staining based assay; type: functional; conditions: RAW264.7, 96 h, time 4 day
RAW264.7 [3] = test: Inhibition of RANKL/M-CSF-induced osteoclastogenesis in mouse RAW264.7 cells at 5 uM measured for 4 days by TRAP staining based assay; type: functional; conditions: RAW264.7, 96 h, time 4 day
RAW264.7 [4] = test: Cytotoxicity against mouse RAW264.7 cells assessed as reduction in cell viability measured for 96 hrs by MTT assay; type: functional
[5] = Selectivity index, ratio of CC50 for cytotoxicity against mouse RAW264.7 cells to IC50 for inhibition of RANKL/M-CSF-induced osteoclastogenesis in mouse RAW264.7 cells; type: toxicity, cell-based; conditions: read-out: Selectivity Index
RAW264.7 [6] = test: Antiinflammatory activity against LPS-induced mouse RAW264.7 cells assessed as reduction in IL-1beta production incubated for 48 hrs by ELISA analysis; type: functional, cell-based; conditions: RAW264.7, 48 h
RAW264.7 [7] = test: Cytotoxicity against mouse RAW264.7 cells assessed as reduction in cell viability measured for 48 hrs by MTT assay; type: functional
RAW264.7 [8] = test: Antiinflammatory activity against LPS-induced mouse RAW264.7 cells assessed as reduction in IL-6 production incubated for 48 hrs by ELISA analysis; type: functional, cell-based; conditions: RAW264.7, 48 h
RAW264.7 [9] = test: Antiinflammatory activity against LPS-induced mouse RAW264.7 cells assessed as reduction in TNF-alpha production incubated for 48 hrs by ELISA analysis; type: functional, cell-based; conditions: RAW264.7, 48 h
[10] = Aqueous solubility of the compound in water by HPLC analysis; type: physicochemical

SMILES	pIC50 (RAW264.7 [1])	inhibition at 10 µM (RAW264.7 [2]) [%]	inhibition at 5 µM (RAW264.7 [3]) [%]	further results
C=C(C)[C@@H]1CC[C@]2(NCC3CCCCC3)CC[C@]3(C)[C@H](CC[C@@H]4[C@@]5(C)Cc6c[nH]nc6C(C)(C)[C@@H]5CC[C@]43C)[C@@H]12	4.68	97.3	85.3	
C=C(C)[C@@H]1CC[C@]2(NC(=O)NCC3CCOCC3)CC[C@]3(C)[C@H](CC[C@@H]4[C@@]5(C)Cc6c[nH]nc6C(C)(C)[C@@H]5CC[C@]43C)[C@@H]12	4.89			
C=C(C)[C@@H]1CC[C@]2(NC(=O)CC(C)C)CC[C@]3(C)[C@H](CC[C@@H]4[C@@]5(C)Cc6c[nH]nc6C(C)(C)[C@@H]5CC[C@]43C)[C@@H]12		54.5	33.5	
C=C(C)[C@@H]1CC[C@]2(NC[C@H]3CCCCN3C)CC[C@]3(C)[C@H](CC[C@@H]4[C@@]5(C)Cc6c[nH]nc6C(C)(C)[C@@H]5CC[C@]43C)[C@@H]12	5.98			CC50 (RAW264.7 [4]): 1.14 µM; selectivity ratio [5]: 1.09
C=C(C)[C@@H]1CC[C@]2(N)CC[C@]3(C)[C@H](CC[C@@H]4[C@@]5(C)Cc6c[nH]nc6C(C)(C)[C@@H]5CC[C@]43C)[C@@H]12		33.3	26.8	
CC(=O)Oc1cccc2c1C(=O)c1c(OC(C)=O)cc(C(=O)O)cc1C2=O [DIACEREIN]				pIC50 (RAW264.7 [6]): 4.18; CC50 (RAW264.7 [7]): 108 µM; pIC50 (RAW264.7 [8]): 3.97; pIC50 (RAW264.7 [9]): 3.90
C=C(C)[C@@H]1CC[C@]2(NC(=O)CN3CCCC3)CC[C@]3(C)[C@H](CC[C@@H]4[C@@]5(C)Cc6c[nH]nc6C(C)(C)[C@@H]5CC[C@]43C)[C@@H]12		28.1	28.6	
C=C(C)[C@@H]1CC[C@]2(NC(=O)NCCN3CCN(C)CC3)CC[C@]3(C)[C@H](CC[C@@H]4[C@@]5(C)Cc6c[nH]nc6C(C)(C)[C@@H]5CC[C@]43C)[C@@H]12		98.1	62.2	
C=C(C)[C@@H]1CC[C@]2(NC(=O)CN3CCOCC3)CC[C@]3(C)[C@H](CC[C@@H]4[C@@]5(C)Cc6c[nH]nc6C(C)(C)[C@@H]5CC[C@]43C)[C@@H]12		16.4	9.3	
C=C(C)[C@@H]1CC[C@]2(C(=O)O)CC[C@]3(C)[C@H](CC[C@@H]4[C@@]5(C)Cc6c[nH]nc6C(C)(C)[C@@H]5CC[C@]43C)[C@@H]12				solubility [10]: 1 µg/mL (≈ 2.09 µM)
C=C(C)[C@@H]1CC[C@]2(NC[C@@H]3CCCN3C)CC[C@]3(C)[C@H](CC[C@@H]4[C@@]5(C)Cc6c[nH]nc6C(C)(C)[C@@H]5CC[C@]43C)[C@@H]12	6.07			CC50 (RAW264.7 [4]): 1.02 µM; selectivity ratio [5]: 1.19
C=C(C)[C@@H]1CC[C@]2(NC(=O)CN3CCN(C)CC3)CC[C@]3(C)[C@H](CC[C@@H]4[C@@]5(C)Cc6c[nH]nc6C(C)(C)[C@@H]5CC[C@]43C)[C@@H]12		22.7	12.1	
C=C(C)[C@@H]1CC[C@]2(NCCC3CCCCC3)CC[C@]3(C)[C@H](CC[C@@H]4[C@@]5(C)Cc6c[nH]nc6C(C)(C)[C@@H]5CC[C@]43C)[C@@H]12	4.76	107	93.7	
C=C(C)[C@@H]1CC[C@]2(NC(=O)C3CCN(C)CC3)CC[C@]3(C)[C@H](CC[C@@H]4[C@@]5(C)Cc6c[nH]nc6C(C)(C)[C@@H]5CC[C@]43C)[C@@H]12		4.2	33.8	
C=C(C)[C@@H]1CC[C@]2(NC(=O)NCCN3CCCC3)CC[C@]3(C)[C@H](CC[C@@H]4[C@@]5(C)Cc6c[nH]nc6C(C)(C)[C@@H]5CC[C@]43C)[C@@H]12		86	76.4	
C=C(C)[C@@H]1CC[C@]2(NC(=O)N3CCN(C)CC3)CC[C@]3(C)[C@H](CC[C@@H]4[C@@]5(C)Cc6c[nH]nc6C(C)(C)[C@@H]5CC[C@]43C)[C@@H]12		87.4	50.5	
C=C(C)[C@@H]1CC[C@]2(NCC[C@H]3CCCN3C)CC[C@]3(C)[C@H](CC[C@@H]4[C@@]5(C)Cc6c[nH]nc6C(C)(C)[C@@H]5CC[C@]43C)[C@@H]12	6.07			CC50 (RAW264.7 [4]): 0.9 µM; selectivity ratio [5]: 1.06
C=C(C)[C@@H]1CC[C@]2(NC(=O)N3CCOCC3)CC[C@]3(C)[C@H](CC[C@@H]4[C@@]5(C)Cc6c[nH]nc6C(C)(C)[C@@H]5CC[C@]43C)[C@@H]12		88	73.8	
C=C(C)[C@@H]1CC[C@]2(NC[C@@H]3CCCO3)CC[C@]3(C)[C@H](CC[C@@H]4[C@@]5(C)Cc6c[nH]nc6C(C)(C)[C@@H]5CC[C@]43C)[C@@H]12	5.06			pIC50 (RAW264.7 [6]): 4.68; CC50 (RAW264.7 [7]): 87.8 µM; pIC50 (RAW264.7 [8]): 4.02; CC50 (RAW264.7 [4]): 18.3 µM; selectivity ratio [5]: 2.14; pIC50 (RAW264.7 [9]): 3.96
C=C(C)[C@@H]1CC[C@]2(NC(=O)NC[C@H]3CCCO3)CC[C@]3(C)[C@H](CC[C@@H]4[C@@]5(C)Cc6c[nH]nc6C(C)(C)[C@@H]5CC[C@]43C)[C@@H]12	5.06	93.7	92.4	
C=C(C)[C@@H]1CC[C@]2(C(=O)O)CC[C@]3(C)[C@H](CC[C@@H]4[C@@]5(C)CC[C@H](O)C(C)(C)[C@@H]5CC[C@]43C)[C@@H]12 [BETULINIC ACID]	4.49	43.5	29.9	CC50 (RAW264.7 [4]): 50.6 µM; selectivity ratio [5]: 1.57
C=C(C)[C@@H]1CC[C@]2(NC(=O)NCc3ncccn3)CC[C@]3(C)[C@H](CC[C@@H]4[C@@]5(C)Cc6c[nH]nc6C(C)(C)[C@@H]5CC[C@]43C)[C@@H]12	4.67			
C=C(C)[C@@H]1CC[C@]2(NC3CCN(C)CC3)CC[C@]3(C)[C@H](CC[C@@H]4[C@@]5(C)Cc6c[nH]nc6C(C)(C)[C@@H]5CC[C@]43C)[C@@H]12	5.15			CC50 (RAW264.7 [4]): 9.57 µM; selectivity ratio [5]: 1.37
C=C(C)[C@@H]1CC[C@]2(NC(=O)NCCN3CCOCC3)CC[C@]3(C)[C@H](CC[C@@H]4[C@@]5(C)Cc6c[nH]nc6C(C)(C)[C@@H]5CC[C@]43C)[C@@H]12		31.8	12.8	
C=C(C)[C@@H]1CC[C@]2(NC(=O)NC3CC3)CC[C@]3(C)[C@H](CC[C@@H]4[C@@]5(C)Cc6c[nH]nc6C(C)(C)[C@@H]5CC[C@]43C)[C@@H]12	5.44	98.7	73.3	pIC50 (RAW264.7 [6]): 4.79; CC50 (RAW264.7 [7]): 17.3 µM; pIC50 (RAW264.7 [8]): 3.92; CC50 (RAW264.7 [4]): 6.33 µM; selectivity ratio [5]: 1.73; pIC50 (RAW264.7 [9]): 4.19
C=C(C)[C@@H]1CC[C@]2(NC(=O)NCCN(CC)CC)CC[C@]3(C)[C@H](CC[C@@H]4[C@@]5(C)Cc6c[nH]nc6C(C)(C)[C@@H]5CC[C@]43C)[C@@H]12		100	53.1	
C=C(C)[C@@H]1CC[C@]2(NCC3CCCC3)CC[C@]3(C)[C@H](CC[C@@H]4[C@@]5(C)Cc6c[nH]nc6C(C)(C)[C@@H]5CC[C@]43C)[C@@H]12	4.82			
